Measured values from ChEMBL document CHEMBL1201862, “PubChem BioAssay data set” (2004).
Activity calls are given as the source filed them. Cut-off read from the data, not from the text of the source, for most assays here: actives have a measured IC50 and inactives only a lower limit.

What was measured:
[1] = inhibitors of intracellular T. cruzi replication, confirmation, NIH3T3 host cells, beta-gal luminescence (AID 2044); type: functional, cell-based;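 note: intracellular parasites grown in NIH/3T3 mouse fibroblasts as host cells; luminescent beta-galactosidase reporter signal from transgenic T. cruzi replicating inside host cells; inhibitors lower the luminescence signal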
[2] = cytotoxicity toward NIH3T3 fibroblasts, dose response, counter-screen, cell-based, ATP luminescence, mouse fibroblasts (AID 2010); type: functional;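 note: cells exposed to compound for about 90 hours before reading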
[3] = target: T1, Microphthalmia-associated transcription factor (Homo sapiens, UniProt O75030); experiment: TRPM1 promoter luciferase signal decrease, dose response, MITF inhibitor project, cell-based, SK-MEL-5, cherry-picked, set 3 (AID 493073); type: functional
T1 sequence (O75030 whole entry): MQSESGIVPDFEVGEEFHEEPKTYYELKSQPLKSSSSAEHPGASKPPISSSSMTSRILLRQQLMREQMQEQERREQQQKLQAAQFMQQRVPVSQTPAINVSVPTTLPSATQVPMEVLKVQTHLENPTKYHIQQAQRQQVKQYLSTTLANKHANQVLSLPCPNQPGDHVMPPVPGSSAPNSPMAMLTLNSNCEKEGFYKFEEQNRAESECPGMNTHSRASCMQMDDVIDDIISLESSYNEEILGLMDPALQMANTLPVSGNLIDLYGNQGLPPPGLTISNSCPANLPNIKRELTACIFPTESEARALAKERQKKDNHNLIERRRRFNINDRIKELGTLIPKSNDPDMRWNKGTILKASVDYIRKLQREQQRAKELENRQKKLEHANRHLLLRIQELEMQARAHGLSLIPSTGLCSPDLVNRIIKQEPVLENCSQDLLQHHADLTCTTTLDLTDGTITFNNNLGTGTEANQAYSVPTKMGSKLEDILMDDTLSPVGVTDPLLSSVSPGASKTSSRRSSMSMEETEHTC

[4] = target: V-type proton ATPase subunit c' (Saccharomyces cerevisiae S288c, UniProt P32842); experiment: Dose Response with BCECF Assay for V-ATPase inhibitors that increase vacuolar pH, Powder Set 1.; type: functional; conditions: read-out: EC50_MICROM
Sequence of V-type proton ATPase subunit c' (P32842 whole entry): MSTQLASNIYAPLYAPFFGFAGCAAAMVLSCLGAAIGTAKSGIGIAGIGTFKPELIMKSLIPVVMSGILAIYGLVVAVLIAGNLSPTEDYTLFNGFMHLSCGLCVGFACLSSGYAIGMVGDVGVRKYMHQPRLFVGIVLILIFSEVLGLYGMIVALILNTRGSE

[5] = target: T2, Sentrin-specific protease 8 (Homo sapiens, UniProt Q96LD8); experiment: SENP8 protease inhibitors, SAR follow-up, biochemical, luminescence (AID 504501); type: functional
T2 sequence (Q96LD8 whole entry): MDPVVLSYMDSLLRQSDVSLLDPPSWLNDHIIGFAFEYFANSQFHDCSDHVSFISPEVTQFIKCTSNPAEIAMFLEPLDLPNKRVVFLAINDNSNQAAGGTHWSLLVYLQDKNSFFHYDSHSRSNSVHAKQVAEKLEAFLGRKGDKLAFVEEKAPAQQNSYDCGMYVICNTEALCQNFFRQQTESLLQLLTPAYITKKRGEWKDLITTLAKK

[6] = target: T3, Caspase-3 (Homo sapiens, UniProt P42574); experiment: SAR Analysis of small molecule inhibitors of Sentrin-specific proteases (SENPs) using a Caspase-3 Selectivity assay. [Related pubchem assays (depositor defined):AID2540, AID2599, AID434973, AID489001]; type: functional
T3 sequence (P42574 whole entry): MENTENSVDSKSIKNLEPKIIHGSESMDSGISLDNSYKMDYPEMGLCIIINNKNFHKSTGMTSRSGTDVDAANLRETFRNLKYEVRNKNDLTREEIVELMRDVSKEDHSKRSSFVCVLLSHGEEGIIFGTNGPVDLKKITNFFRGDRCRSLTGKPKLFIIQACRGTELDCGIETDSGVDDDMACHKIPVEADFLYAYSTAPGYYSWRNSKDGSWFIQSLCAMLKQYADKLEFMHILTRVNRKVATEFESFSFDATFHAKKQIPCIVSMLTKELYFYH

[7] = target: T4, Sentrin-specific protease 6 (Homo sapiens, UniProt Q9GZR1); experiment: SAR Analysis of small molecule inhibitors of Sentrin-specific protease 6 (SENP6) using a Luminescent assay. [Related pubchem assays (depositor defined):AID2582, AID2599]; type: functional
T4 sequence (Q9GZR1 whole entry): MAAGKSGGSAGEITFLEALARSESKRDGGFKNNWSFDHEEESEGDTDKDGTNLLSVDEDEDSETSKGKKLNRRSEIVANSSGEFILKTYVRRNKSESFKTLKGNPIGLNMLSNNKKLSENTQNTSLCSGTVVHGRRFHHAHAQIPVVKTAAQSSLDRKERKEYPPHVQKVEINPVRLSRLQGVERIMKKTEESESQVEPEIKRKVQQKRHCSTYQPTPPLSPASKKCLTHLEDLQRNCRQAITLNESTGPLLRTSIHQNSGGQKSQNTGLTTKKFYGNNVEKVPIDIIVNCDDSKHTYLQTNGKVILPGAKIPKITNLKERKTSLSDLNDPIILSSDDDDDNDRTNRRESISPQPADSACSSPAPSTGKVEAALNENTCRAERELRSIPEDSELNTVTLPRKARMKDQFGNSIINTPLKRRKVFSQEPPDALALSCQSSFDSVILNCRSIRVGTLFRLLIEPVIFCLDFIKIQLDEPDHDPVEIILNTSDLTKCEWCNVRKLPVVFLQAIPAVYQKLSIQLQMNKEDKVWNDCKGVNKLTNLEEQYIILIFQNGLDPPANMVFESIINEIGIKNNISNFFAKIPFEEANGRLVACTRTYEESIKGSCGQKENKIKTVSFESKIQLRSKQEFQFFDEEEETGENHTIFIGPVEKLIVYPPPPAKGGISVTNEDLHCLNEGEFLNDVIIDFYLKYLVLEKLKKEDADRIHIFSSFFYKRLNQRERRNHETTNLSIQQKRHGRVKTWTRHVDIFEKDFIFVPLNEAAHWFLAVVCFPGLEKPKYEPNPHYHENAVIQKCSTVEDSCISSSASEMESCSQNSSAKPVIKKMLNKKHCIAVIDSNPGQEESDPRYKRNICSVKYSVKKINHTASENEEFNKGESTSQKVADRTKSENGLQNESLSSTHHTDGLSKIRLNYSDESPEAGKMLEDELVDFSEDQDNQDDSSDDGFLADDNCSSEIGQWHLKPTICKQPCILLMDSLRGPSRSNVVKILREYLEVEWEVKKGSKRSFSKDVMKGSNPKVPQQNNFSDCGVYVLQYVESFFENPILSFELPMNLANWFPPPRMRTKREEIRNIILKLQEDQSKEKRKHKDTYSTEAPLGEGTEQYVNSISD

[8] = target: T5, Sentrin-specific protease 7 (Homo sapiens, UniProt Q9BQF6); experiment: SENP7 protease inhibitors, SAR follow-up, biochemical, luminescence (AID 504497); type: functional
T5 sequence (Q9BQF6 whole entry): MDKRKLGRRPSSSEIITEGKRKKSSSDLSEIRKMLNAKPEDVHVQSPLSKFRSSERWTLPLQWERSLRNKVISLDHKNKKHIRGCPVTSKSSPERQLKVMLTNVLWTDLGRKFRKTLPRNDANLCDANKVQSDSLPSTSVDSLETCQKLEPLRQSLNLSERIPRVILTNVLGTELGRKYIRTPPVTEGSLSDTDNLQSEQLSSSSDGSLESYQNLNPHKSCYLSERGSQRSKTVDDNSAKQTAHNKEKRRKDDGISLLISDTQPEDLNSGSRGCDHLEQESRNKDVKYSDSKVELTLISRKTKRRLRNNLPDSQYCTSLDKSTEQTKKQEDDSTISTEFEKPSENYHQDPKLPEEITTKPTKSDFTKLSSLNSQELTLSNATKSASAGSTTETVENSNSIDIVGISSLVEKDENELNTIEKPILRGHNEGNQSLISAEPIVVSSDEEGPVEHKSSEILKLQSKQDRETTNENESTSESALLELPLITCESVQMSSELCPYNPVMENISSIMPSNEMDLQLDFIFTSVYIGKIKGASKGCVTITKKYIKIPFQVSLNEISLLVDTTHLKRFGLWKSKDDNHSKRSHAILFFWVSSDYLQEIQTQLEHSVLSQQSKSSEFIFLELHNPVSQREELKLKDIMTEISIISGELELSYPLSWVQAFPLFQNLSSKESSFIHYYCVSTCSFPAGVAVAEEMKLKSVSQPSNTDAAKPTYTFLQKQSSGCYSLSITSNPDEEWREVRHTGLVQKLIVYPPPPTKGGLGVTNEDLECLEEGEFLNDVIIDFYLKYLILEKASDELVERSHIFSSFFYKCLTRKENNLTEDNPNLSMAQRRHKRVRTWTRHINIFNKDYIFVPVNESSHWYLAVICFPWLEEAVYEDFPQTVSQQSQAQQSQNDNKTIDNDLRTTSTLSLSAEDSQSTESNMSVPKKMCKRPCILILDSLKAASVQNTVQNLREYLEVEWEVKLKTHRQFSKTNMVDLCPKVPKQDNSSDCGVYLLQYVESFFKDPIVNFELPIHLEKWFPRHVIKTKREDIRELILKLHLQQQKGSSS

[9] = target: T3, Caspase-3; experiment: caspase-3 inhibitors as off-family protease, SAR follow-up, selectivity assay for SENP protease inhibitor project, biochemical, luminescence, set 2 (AID 588599); type: functional
[10] = target: T2, Sentrin-specific protease 8; experiment: SENP8 protease inhibitors, SAR follow-up, biochemical, luminescence, set 2 (AID 588601); type: functional
[11] = target: T5, Sentrin-specific protease 7; experiment: SENP7 protease inhibitors, SAR follow-up, biochemical, luminescence, set 2 (AID 588600); type: functional
[12] = target: T4, Sentrin-specific protease 6; experiment: SENP6 protease inhibitors, SAR follow-up, biochemical, luminescence, set 2 (AID 588598); type: functional

COc1ccc2nc(N3CCN(C(=O)c4ccc([N+](=O)[O-])o4)CC3)sc2c1
active: EC50 [1] 434 nM | EC50 [2] 39.5 µM | AC50 [3] 5.81 µM | EC50 [4] 728 nM

CC(N/C=C1/C(=O)N(c2nc3ccccc3s2)N=C1C(F)(F)F)C12CC3CC(CC(C3)C1)C2 (configuration not stated)
active: IC50 [5] 86.9 µM | IC50 [6] 40.7 µM | IC50 [7] 77.3 µM | IC50 [8] 87.3 µM

O=C(Cc1ccc(C(F)(F)F)cc1[N+](=O)[O-])N/N=C/c1c[nH]c2ccccc12
inactive: IC50 [9] > 99 µM | IC50 [10] > 99 µM | IC50 [11] > 99 µM | IC50 [12] > 99 µM
